Results taken from patent US20110280940A1, “Di-Vanilloyl And Tri-Vanilloyl Derivatives For Use In Anti-Cancer Therapy” (priority 2008, published 2011).

Assays:
[1] = tested on: A549 non-small-cell-lung cancer cell line; test: Cellular imaging (quantitative videomicroscopy), global growth ratio, A549; type: cell-based; details: Homo sapiens, 72 h, read-out: Global Grow Ratio Treated/Ct (GGR T/Ct) determined by Video Quantitative microscopy, A549
CK1 = test: Kinase activity assay, CK1; type: biochemical, porcine; details: 10 μM, 1% DMSO, 15 μM ATP; residual activity
Experimental: (§1) Buffer A: 10 mM MgCl2, 1 mM EGTA, 1 mM DTT, 25 mM Tris-HCl pH 7.5, 50 μg heparin/ml. Buffer C: 60 mM β-glycerophosphate, 15 mM p-nitrophenylphosphate, 25 mM Mops (pH 7.2), 5 mM EGTA, 15 mM MgCl2, 1 mM DTT, 1 mM sodium vanadate, 1 mM phenyl phosphate.
(§2) Kinase activities were assayed in Buffer A or C, at 30° C., at a final ATP concentration of 15 μM. Blank values were subtracted and activities expressed in % of the maximal activity, i.e. in the absence of inhibitors. Controls were performed with appropriate dilutions of DMSO.
CK1 (porcine brain, native) was assayed as described for CDK1 but using the CK1-specific peptide substrate […]pSAYSITA (Seq. ID NO 2) (Reinhardt et al., 2007, Protein Expr. & Purif. 54, 101-109), obtained from Millegen (Labege, France).

DYRK1A = DYRK1A (Rattus norvegicus, UniProt Q63470); test: Kinase activity assay, DYRK1A (GST fusion, myelin basic protein substrate); type: biochemical
Experimental: as §1, §2
DYRK1A (rat, recombinant, expressed in E. coli as a GST fusion protein) was purified by affinity chromatography on glutathione-agarose and assayed as described for CDK1/cyclin B using myelin basic protein (1 mg/ml) as a substrate.

Aurora kinases = test: Kinase inhibition profile of DLT11 at 20 μM, Aurora kinases; type: biochemical, human; details: 20 μM (FIG. 3)
Experimental: The kinase inhibition profile of DLT11 at 20 μM was determined using 250 protein kinases. Residual activity values were measured by testing each compound at one concentration in duplicate in each kinase assay. A radiometric protein kinase assay (33 PanQinase®Activity Assay) was used for measuring the kinase activity of 250 protein kinases. All kinase assays were performed in 96-well flashPlates™ from Perkin Elmer (Boston, Mass., USA) in a 50 μl reaction volume. The reaction cocktail was pipetted in 4 steps in the following order: • 10 μl of non-radioactive ATP solution (in H2O) • 25 μl of assay buffer/[γ-33P]-ATP mixture • 5 μl of test sample in 10% DMSO • 10 μl of enzyme/substrate mixture […]
Incorporation of ^33Pi (counting of “cpm”) was determined with a microplate scintillation counter (Microbeta, Wallac).
For each kinase, the median value of the cpm of three wells with complete reaction cocktails, but without kinase, was defined as “low control” (n=3). This value reflects unspecific binding of radioactivity to the plate in the absence of protein kinase but in the presence of the substrate. […] The residual activity (in %) for each compound well was calculated by using the following formula: Res. Activity (%)=100×[(cpm of compound−low control)/(high control−low control)]

Question: How did the activity at 50 µM [1] turn out when `COc1cc(C(=O)OCCOC(=O)c2ccc(O)c(OC)c2)ccc1O` [DLT1, Ethane-1,2-diyl bis-(4-hydroxy-3-methoxybenzoate)] was run?
Answer: Its activity at 50 µM is 50%.

Question: What about the “% ENZYMATIC ACTIVITY, Ckone” value (CK1) of the same molecule?
Answer: Its value is 62%.

Question: And the inhibition at 10 µM (DYRK1A)?
Answer: Its inhibition at 10 µM is 51%.

Question: And the “% ENZYMATIC ACTIVITY, Dyrk1A” value (DYRK1A; 10 μM, 1% DMSO, 15 μM ATP, residual activity)?
Answer: Its value is 49%.

Question: Which results are given for `COc1cc(C(=O)OCCCCCCOC(=O)c2ccc(O)c(OC)c2)ccc1O` [DLT11, Hexane-1,6-diyl bis-(4-hydroxy-3-methoxybenzoate)]?
Answer: activity at 50 µM [1]: 20%; inhibition of 2 Aurora kinases (Aurora kinases): more than 80%
